Data as given in patent publication EP4691468A1, “PHARMACEUTICAL COMPOSITION FOR TREATING INFLAMMATORY BOWEL DISEASE” (EA Pharma Co., Ltd., priority 2023, dated 2024).
In brackets after ≈: the same amount, converted by molar mass. Several values for one entry are separate records, joined by “and”; a condition that tells them apart may be missing. Equal values may be shown once. Read-outs that look alike come from different tables or passages of the source.

How the values were obtained:
MAdCAM-1 = assay: Ex vivo MAdCAM-1 binding inhibition rate (PD) of lymphocytes in collected blood, flow cytometry; format: cell-based, human
Description: The MAdCAM-1 binding rate of lymphocytes in plasma was measured using a validated measurement method using the obtained blood samples, and the MAdCAM-1 binding inhibition rate of lymphocytes in plasma was calculated using Excel. Specifically, 5 µL of an 80 mM MnCl2 solution was added to 90 µL of heparinized blood and incubated at room temperature for 10 minutes. A volume of 5 µL of 200 µg/mL recombinant human MAdCAM-1/Fc (R&D Systems) was added to make a total volume of 100 µL, and the mixture was incubated at room temperature for 30 minutes. Subsequently, 1900 µL of BD Phosflow Lyse/Fix Buffer 5X (BD Biosciences) was added, and hemolysis and fixation were performed at 37°C for 10 minutes. After centrifugation for 5 minutes, the supernatant was removed, and 2000 µL of RPMI-1640 medium supplemented with 10% inactivated fetal bovine serum (hereinafter referred to as medium) was added. After centrifugation for 5 minutes, the supernatant was removed and washed. After washing again with the medium, 50 µL of Brilliant Stain Buffer (BD Biosciences), 1.25 µL of MAdCAM-1 FITC (Hycult Biotech), 5 µL of CD4 PE (BD Biosciences), 2.5 µL of CD45RO APC (UCHL1) (BioLegend), 5 µL of CD3 BV421 (SK7) (BioLegend), and 2.5 µL of CD45 BV510 (HI30) (BioLegend) were added, and the mixture was incubated for 30 minutes. After washing with Stain Buffer (BSA) (BD Biosciences), the percentage of MAdCAM-1-positive cells among CD3-positive CD4-positive cells was measured using flow cytometry.
The percentage of MAdCAM-1-positive cells among CD3-positive CD4-positive cells was calculated by subtracting each measured value from the measured value when MAdCAM-1/Fc was not added as a control. […]
The MAdCAM-1 binding inhibition rate (PD) of lymphocytes in plasma was evaluated using collected blood, and the correlation with the plasma concentration (PK) of Compound (2) was plotted (Fig. 5).

[1] = for 12-Hour Post-Dose Trough Values of Compound (2) after Repeated Administration / Average Plasma Concentrations of Compound (2) on Day 10 of Repeated Administration: Compound (1) 200 mg twice daily C-SEDDS
Description: A phase 1 clinical trial was conducted to evaluate the safety, tolerability, and pharmacokinetics of Compound (1) when orally administered to healthy adult males.
This clinical trial was a single-center, randomized, double-blind, placebo-controlled, single and multiple ascending dose study with the primary objective of evaluating the safety and tolerability of Compound (1) when orally administered to healthy adult males.
The subjects in each cohort consisted of 8 people, of which 6 were assigned to Compound (1) and 2 were assigned to placebo, and they were administered the drug.
Day 8, when repeated administration was started, corresponds to administration day 1 (Day 1), and day 17 corresponds to administration day 10 (Day 10).
The plasma concentration of Compound (2) was measured using a validated measurement method. Specifically, plasma was separated from collected blood and processed, and then the plasma concentration was measured by an LC/MS/MS apparatus.
For twice-daily administration of C-SEDDS, blood was further collected at 13, 14, 14.5, and 16 hours later to quantify Compound (2).

[2] = plasma concentration, MAdCAM-1-positive cells among CD3-positive CD4-positive cells, ex vivo blood of healthy adult males
[3] = Measured Value, Repeated, Twice daily, 400(200×2)/C-SEDDS, day 10

correlation of MAdCAM-1 binding inhibition rate (PD) with plasma concentration (PK) (MAdCAM-1; collected blood, Fig. 5): correlated
increase of plasma concentration (trough value) 12 hours after the second dose on the 10th day of repeated administration ([1]; C-SEDDS 200 mg twice daily, versus single-dose administration): about eightfold
12-Hour Post-Dose Trough Values of Compound (2) after Repeated Administration ([1]; Day 0.5): 2.025 ng/mL
12-Hour Post-Dose Trough Values of Compound (2) after Repeated Administration ([1]; Day 1): 3.653 ng/mL
12-Hour Post-Dose Trough Values of Compound (2) after Repeated Administration ([1]; Day 1.5): 4.250 ng/mL
12-Hour Post-Dose Trough Values of Compound (2) after Repeated Administration ([1]; Day 2): 6.021 ng/mL
12-Hour Post-Dose Trough Values of Compound (2) after Repeated Administration ([1]; Day 2.5): 7.700 ng/mL
12-Hour Post-Dose Trough Values of Compound (2) after Repeated Administration ([1]; Day 3): 7.026 ng/mL
12-Hour Post-Dose Trough Values of Compound (2) after Repeated Administration ([1]; Day 3.5): 7.381 ng/mL
12-Hour Post-Dose Trough Values of Compound (2) after Repeated Administration ([1]; Day 4): 9.303 ng/mL
12-Hour Post-Dose Trough Values of Compound (2) after Repeated Administration ([1]; Day 4.5): 9.167 ng/mL
12-Hour Post-Dose Trough Values of Compound (2) after Repeated Administration ([1]; Day 5): 9.985 ng/mL
12-Hour Post-Dose Trough Values of Compound (2) after Repeated Administration ([1]; Day 5.5): 12.59 ng/mL
12-Hour Post-Dose Trough Values of Compound (2) after Repeated Administration ([1]; Day 6): 11.20 ng/mL
12-Hour Post-Dose Trough Values of Compound (2) after Repeated Administration ([1]; Day 6.5): 10.81 ng/mL
12-Hour Post-Dose Trough Values of Compound (2) after Repeated Administration ([1]; Day 7): 11.82 ng/mL
12-Hour Post-Dose Trough Values of Compound (2) after Repeated Administration ([1]; Day 7.5): 10.83 ng/mL
12-Hour Post-Dose Trough Values of Compound (2) after Repeated Administration ([1]; Day 8): 14.16 ng/mL
12-Hour Post-Dose Trough Values of Compound (2) after Repeated Administration ([1]; Day 8.5): 12.12 ng/mL
12-Hour Post-Dose Trough Values of Compound (2) after Repeated Administration ([1]; Day 9): 15.06 ng/mL
12-Hour Post-Dose Trough Values of Compound (2) after Repeated Administration ([1]; Day 9.5): 12.20 ng/mL
12-Hour Post-Dose Trough Values of Compound (2) after Repeated Administration ([1]; Day 10): 13.69 ng/mL
Average Plasma Concentrations of Compound (2) on Day 10 of Repeated Administration ([1]; Day 10, Time 0.5 h): 11.82 ng/mL
Average Plasma Concentrations of Compound (2) on Day 10 of Repeated Administration ([1]; Day 10, Time 1 h): 10.63 ng/mL
Average Plasma Concentrations of Compound (2) on Day 10 of Repeated Administration ([1]; Day 10, Time 1.5 h): 10.52 ng/mL
Average Plasma Concentrations of Compound (2) on Day 10 of Repeated Administration ([1]; Day 10, Time 2 h): 14.42 ng/mL
Average Plasma Concentrations of Compound (2) on Day 10 of Repeated Administration ([1]; Day 10, Time 2.5 h): 17.31 ng/mL
Average Plasma Concentrations of Compound (2) on Day 10 of Repeated Administration ([1]; Day 10, Time 3 h): 18.02 ng/mL
Average Plasma Concentrations of Compound (2) on Day 10 of Repeated Administration ([1]; Day 10, Time 4 h): 20.07 ng/mL
Average Plasma Concentrations of Compound (2) on Day 10 of Repeated Administration ([1]; Day 10, Time 5 h): 20.59 ng/mL
Average Plasma Concentrations of Compound (2) on Day 10 of Repeated Administration ([1]; Day 10, Time 6 h): 14.19 ng/mL
Average Plasma Concentrations of Compound (2) on Day 10 of Repeated Administration ([1]; Day 10, Time 7 h): 12.13 ng/mL
Average Plasma Concentrations of Compound (2) on Day 10 of Repeated Administration ([1]; Day 10, Time 8 h): 10.93 ng/mL
Average Plasma Concentrations of Compound (2) on Day 10 of Repeated Administration ([1]; Day 10, Time 12 h): 12.20 ng/mL
Average Plasma Concentrations of Compound (2) on Day 10 of Repeated Administration ([1]; Day 10, Time 13 h): 15.64 ng/mL
Average Plasma Concentrations of Compound (2) on Day 10 of Repeated Administration ([1]; Day 10, Time 14 h): 25.37 ng/mL
Average Plasma Concentrations of Compound (2) on Day 10 of Repeated Administration ([1]; Day 10, Time 14.5 h): 25.16 ng/mL
Average Plasma Concentrations of Compound (2) on Day 10 of Repeated Administration ([1]; Day 10, Time 15 h): 22.99 ng/mL
Average Plasma Concentrations of Compound (2) on Day 10 of Repeated Administration ([1]; Day 10, Time 16 h): 20.48 ng/mL
Average Plasma Concentrations of Compound (2) on Day 10 of Repeated Administration ([1]; Day 10, Time 21 h): 13.24 ng/mL
Average Plasma Concentrations of Compound (2) on Day 10 of Repeated Administration ([1]; Day 10, Time 24 h): 13.69 ng/mL
12-Hour Post-Dose Trough Values of Compound (2) after Repeated Administration ([1]; Initial Value): 0.000 ng/mL
Judgment Trough Value [1, 3]: A (IC90 (6.9 ng/mL) or higher)
Plasma Concentration Trough Value [1, 3]: 13.69 ng/mL and 13.7 ng/mL
SMILES: Cc1cc(=O)n(-c2ccc(C[C@H](NC(=O)c3cc(F)c(NS(=O)(=O)c4ccc(NC(=O)C(C)(C)C)cc4)cc3F)C(=O)O)cn2)c(=O)n1C [Compound (2)]
IC50 (concentration that causes 50% binding inhibition) (MAdCAM-1; [2]): 1.9 ng/mL (≈ 2.72 nM)
IC90 (concentration that causes 90% binding inhibition) (MAdCAM-1; [2]): 6.9 ng/mL (≈ 9.88 nM)
